# Laboratory results reported in PubChem BioAssay AID1259407 (Chemical Carcinogenesis Research Information System (CCRIS), 2018).
# The source made the active and inactive calls. The rule behind the calls is not given here.
# System: CCRIS mutagenicity, Ames/micronucleus/aberration tests
# Test: CCRIS mutagenicity studies
smiles,measurement,setting,value
O=C(O)CN(CC(=O)O)CC(=O)O,mutagenic call,"Test System: AMES SALMONELLA TYPHIMURIUM, Strain/Indicator: TA1535, Metabolic Activation: NONE, Method: STANDARD PLATE",inactive; negative
same,mutagenic call,"Test System: AMES SALMONELLA TYPHIMURIUM, Strain/Indicator: TA1535, Metabolic Activation: NONE, Method: SUSPENSION/PLATE",inactive; negative
same,mutagenic call,"Test System: AMES SALMONELLA TYPHIMURIUM, Strain/Indicator: TA1535, Metabolic Activation: RAT, LIVER, S-9, AROCLOR 1254 (10 OR 30%), Method: PREINCUBATION",inactive; negative
same,mutagenic call,"Test System: AMES SALMONELLA TYPHIMURIUM, Strain/Indicator: TA1535, Metabolic Activation: RAT, LIVER, S-9, AROCLOR 1254, Method: STANDARD PLATE",inactive; negative
same,mutagenic call,"Test System: AMES SALMONELLA TYPHIMURIUM, Strain/Indicator: TA1535, Metabolic Activation: RAT, LIVER, S-9, Method: STANDARD PLATE",inactive; negative
same,mutagenic call,"Test System: AMES SALMONELLA TYPHIMURIUM, Strain/Indicator: TA1537, Metabolic Activation: HAMSTER, LIVER, S-9, AROCLOR 1254 (10 OR 30%), Method: PREINCUBATION",inactive; negative
same,mutagenic call,"Test System: AMES SALMONELLA TYPHIMURIUM, Strain/Indicator: TA1537, Metabolic Activation: HAMSTER, LIVER, S-9, AROCLOR 1254, Method: STANDARD PLATE",inactive; negative
same,mutagenic call,"Test System: AMES SALMONELLA TYPHIMURIUM, Strain/Indicator: TA1537, Metabolic Activation: HAMSTER, LIVER, S-9, Method: STANDARD PLATE",inactive; negative
same,mutagenic call,"Test System: AMES SALMONELLA TYPHIMURIUM, Strain/Indicator: TA1537, Metabolic Activation: MOUSE, LIVER, S-9, AROCLOR 1254, Method: STANDARD PLATE",inactive; negative
same,mutagenic call,"Test System: AMES SALMONELLA TYPHIMURIUM, Strain/Indicator: TA1537, Metabolic Activation: MOUSE, LIVER, S-9, Method: STANDARD PLATE",inactive; negative
same,mutagenic call,"Test System: AMES SALMONELLA TYPHIMURIUM, Strain/Indicator: TA1537, Metabolic Activation: NONE, Method: PREINCUBATION",inactive; negative
same,mutagenic call,"Test System: AMES SALMONELLA TYPHIMURIUM, Strain/Indicator: TA1537, Metabolic Activation: NONE, Method: STANDARD PLATE",inactive; negative
same,mutagenic call,"Test System: AMES SALMONELLA TYPHIMURIUM, Strain/Indicator: TA1537, Metabolic Activation: NONE, Method: SUSPENSION/PLATE",inactive; negative
same,mutagenic call,"Test System: AMES SALMONELLA TYPHIMURIUM, Strain/Indicator: TA1537, Metabolic Activation: RAT, LIVER, S-9, AROCLOR 1254 (10 OR 30%), Method: PREINCUBATION",inactive; negative
same,mutagenic call,"Test System: AMES SALMONELLA TYPHIMURIUM, Strain/Indicator: TA1537, Metabolic Activation: RAT, LIVER, S-9, AROCLOR 1254, Method: STANDARD PLATE",inactive; negative
same,mutagenic call,"Test System: AMES SALMONELLA TYPHIMURIUM, Strain/Indicator: TA1537, Metabolic Activation: RAT, LIVER, S-9, Method: STANDARD PLATE",inactive; negative
same,mutagenic call,"Test System: AMES SALMONELLA TYPHIMURIUM, Strain/Indicator: TA1538, Metabolic Activation: HAMSTER, LIVER, S-9, AROCLOR 1254, Method: STANDARD PLATE",inactive; negative
same,mutagenic call,"Test System: AMES SALMONELLA TYPHIMURIUM, Strain/Indicator: TA1538, Metabolic Activation: HAMSTER, LIVER, S-9, Method: STANDARD PLATE",inactive; negative
same,mutagenic call,"Test System: AMES SALMONELLA TYPHIMURIUM, Strain/Indicator: TA1538, Metabolic Activation: MOUSE, LIVER, S-9, AROCLOR 1254, Method: STANDARD PLATE",inactive; negative
same,mutagenic call,"Test System: AMES SALMONELLA TYPHIMURIUM, Strain/Indicator: TA1538, Metabolic Activation: MOUSE, LIVER, S-9, Method: STANDARD PLATE",inactive; negative
same,mutagenic call,"Test System: AMES SALMONELLA TYPHIMURIUM, Strain/Indicator: TA1538, Metabolic Activation: NONE, Method: STANDARD PLATE",inactive; negative
same,mutagenic call,"Test System: AMES SALMONELLA TYPHIMURIUM, Strain/Indicator: TA1538, Metabolic Activation: RAT, LIVER, S-9, AROCLOR 1254, Method: STANDARD PLATE",inactive; negative
same,mutagenic call,"Test System: AMES SALMONELLA TYPHIMURIUM, Strain/Indicator: TA1538, Metabolic Activation: RAT, LIVER, S-9, Method: STANDARD PLATE",inactive; negative
same,mutagenic call,"Test System: Ames Salmonella typhimurium, Strain/Indicator: TA98, Metabolic Activation: None, Method: Plate incorporation",inactive; negative
same,mutagenic call,"Test System: Ames Salmonella typhimurium, Strain/Indicator: TA98, Metabolic Activation: Rat, Kidney, S9, Aroclor 1254 with NADP, Method: Preincubation",inactive; negative
same,mutagenic call,"Test System: Ames Salmonella typhimurium, Strain/Indicator: TA98, Metabolic Activation: Rat, Kidney, S9, Aroclor 1254 with arachidonic acid instead of NADP, Method: Preincubation",inactive; negative
same,mutagenic call,"Test System: Ames Salmonella typhimurium, Strain/Indicator: TA98, Metabolic Activation: Rat, Liver, S9, Aroclor 1254, Method: Preincubation",inactive; negative
same,mutagenic call,"Test System: Ames Salmonella typhimurium, Strain/Indicator: TA100, Metabolic Activation: None, Method: Plate incorporation",inactive; negative
same,mutagenic call,"Test System: Ames Salmonella typhimurium, Strain/Indicator: TA100, Metabolic Activation: Rat, Kidney, S9, Aroclor 1254 with NADP, Method: Preincubation",inactive; negative
same,mutagenic call,"Test System: Ames Salmonella typhimurium, Strain/Indicator: TA100, Metabolic Activation: Rat, Kidney, S9, Aroclor 1254 with arachidonic acid instead of NADP, Method: Preincubation",inactive; negative
same,mutagenic call,"Test System: Ames Salmonella typhimurium, Strain/Indicator: TA100, Metabolic Activation: Rat, Liver, S9, Aroclor 1254, Method: Preincubation",inactive; negative
same,mutagenic call,"Test System: Ames Salmonella typhimurium, Strain/Indicator: TA102, Metabolic Activation: None, Method: Plate incorporation",inactive; negative. significant decrease at three highest doses.
same,mutagenic call,"Test System: Ames Salmonella typhimurium, Strain/Indicator: TA102, Metabolic Activation: Rat, Kidney, S9, Aroclor 1254 with NADP, Method: Preincubation",inactive; negative
same,mutagenic call,"Test System: Ames Salmonella typhimurium, Strain/Indicator: TA102, Metabolic Activation: Rat, Kidney, S9, Aroclor 1254 with arachidonic acid instead of NADP, Method: Preincubation",inactive; negative
same,mutagenic call,"Test System: Ames Salmonella typhimurium, Strain/Indicator: TA102, Metabolic Activation: Rat, Liver, S9, Aroclor 1254, Method: Preincubation",inactive; negative
same,mutagenic call,"Test System: Ames Salmonella typhimurium, Strain/Indicator: TA1537, Metabolic Activation: None, Method: Plate incorporation",inactive; negative
same,mutagenic call,"Test System: Ames Salmonella typhimurium, Strain/Indicator: TA1537, Metabolic Activation: Rat, Kidney, S9, Aroclor 1254 with NADP, Method: Preincubation",inactive; negative
same,mutagenic call,"Test System: Ames Salmonella typhimurium, Strain/Indicator: TA1537, Metabolic Activation: Rat, Kidney, S9, Aroclor 1254 with arachidonic acid instead of NADP, Method: Preincubation",inactive; negative
same,mutagenic call,"Test System: Ames Salmonella typhimurium, Strain/Indicator: TA1537, Metabolic Activation: Rat, Liver, S9, Aroclor 1254, Method: Preincubation",inactive; negative
same,mutagenic call,"Test System: E. COLI, Strain/Indicator: WP2 UVRA, Metabolic Activation: HAMSTER, LIVER, S-9, AROCLOR 1254, Method: STANDARD PLATE",inactive; negative
same,mutagenic call,"Test System: E. COLI, Strain/Indicator: WP2 UVRA, Metabolic Activation: HAMSTER, LIVER, S-9, Method: STANDARD PLATE",inactive; negative
same,mutagenic call,"Test System: E. COLI, Strain/Indicator: WP2 UVRA, Metabolic Activation: MOUSE, LIVER, S-9, AROCLOR 1254, Method: STANDARD PLATE",inactive; negative
same,mutagenic call,"Test System: E. COLI, Strain/Indicator: WP2 UVRA, Metabolic Activation: MOUSE, LIVER, S-9, Method: STANDARD PLATE",inactive; negative
same,mutagenic call,"Test System: E. COLI, Strain/Indicator: WP2 UVRA, Metabolic Activation: NONE, Method: STANDARD PLATE",inactive; negative
same,mutagenic call,"Test System: E. COLI, Strain/Indicator: WP2 UVRA, Metabolic Activation: RAT, LIVER, S-9, AROCLOR 1254, Method: STANDARD PLATE",inactive; negative
same,mutagenic call,"Test System: E. COLI, Strain/Indicator: WP2 UVRA, Metabolic Activation: RAT, LIVER, S-9, Method: STANDARD PLATE",inactive; negative
same,mutagenic call,"Test System: MOUSE LYMPHOMA, Strain/Indicator: L5178Y (TK+/TK-), Metabolic Activation: NONE, Method: SUSPENSION/PLATE",inactive; negative
same,mutagenic call,"Test System: MOUSE LYMPHOMA, Strain/Indicator: L5178Y (TK+/TK-), Metabolic Activation: RAT, LIVER, S-9, AROCLOR 1254, Method: SUSPENSION/PLATE",inactive; negative
same,mutagenic call,"Test System: MOUSE LYMPHOMA, Strain/Indicator: L5178Y (TK+/TK-), Metabolic Activation: RAT, LIVER, S-9, Method: SUSPENSION/PLATE",inactive; negative
same,mutagenic call,"Test System: Mouse lymphoma, Strain/Indicator: L5178Y (tk+/tk-), Metabolic Activation: None, Method: Microwell",active; positive. small colonies only.
